Tested on: passive sensitised guinea pig lung parenchyma strips
Assay: Inhibition of the antigen-caused constriction of passive sensitised guinea pig lung parenchyma strips in vitro (organ bath)
Assay type: cell-based
Settings: Cavia porcellus, 20 min; 10 μg/ml substance; ovalbumin 0.1 μg/ml; 20 min/37°C. preincubation; read-out: % Inhibition of the constriction of passive-sensitised lung parenchyms strips (guinea pigs) induced by ovalbumin
Protocol: Inhibition of the antigen-caused construction of passive sensitised guinea pig lung parenchyma strips in vitro (organ bath)
For the in vitro investigation of the compounds according to the invention, the inhibition of the antigen-caused constriction of passive sensitised guinea pig lung parenchyma strips was measured, as described in the following:
Pirbright white guinea pigs were stunned by a blow to the nape of the neck and exsanguinated. The lungs were rinsed substantially blood-free in situ with Krebs buffer, pH 7.4. Subsequently, the lungs were removed, cut up into strips (about […]) and the strips passively sensitised for one hour at room temperature with a 1.:50 dilution of a homologous anti-ovalbumin antiserum and then washed with Krebs buffer 1 x. The antiserum had been previously produced according to DAVIES (1) in guinea pigs of the same strain by repeated injection of ovalbumin (2 x crystallised) with addition of complete Freund's adjuvant. Until its used the antiserum was stored undiluted at -18° C. Subsequently, the lung strips were individually suspended on an isometric measurement sensor in 10 ml waterbaths with an initial tension of 1.2 g. Thereafter, the baths were filled with Krebs buffer and continuously gassed at 37° C. with O2 (95%) and CO2 (5%). Via an amplifier the constrictions of the lung strips were recorded on a recorder. After 30 minutes acclimatisation phase, histamine control spasms were produced for the recognition of the reactivity of the organ pieces washed, subsequently the best substance preincubated 37° C. for 20 minutes and thereafter the ovalbumin-caused constriction initiated. The inhibition action of the compounds according to the invention was expressed as percentage reduction of the constriction amplitude of the "samples with best substance" in relation to the "untreated control constrictions".

| SMILES | inhibition at 10 µg/mL [%] |
| --- | --- |
| c1ccc(N=c2snc3ccccn23)nc1 [Example 2a, 3-(2-pyridinylimino)-3H-[1,2,4]-thiadiazolo [4,3-a]-pyridine] | 56 |
| c1ccn2c(=Nc3ccncc3)snc2c1 [Example 2b, 3-(4-pyridinylimino)-3H-[1,2,4]-thiadiazolo [4,3-a]-pyridine] | 80 |
| COc1ccc(N=c2snc3ccccn23)cc1 [Example 2e, 3-(4-methoxyphenylimino)-3H-[1,2,4]-thiadiazolo-[4,3-a]pyridine] | 48 |
| Cc1cc(O)ccc1N=c1snc2ccccn12 [Example 2p, 3-(4-hydroxy-2-methyl-phenylimino)-3H-[1,2,4]-thiadiazolo [4,3-a]-pyridine] | 62 |
| c1ccn2c(=Nc3ccc4c(c3)OCO4)snc2c1 [Example 2q, 3-(3,4-methylenedioxyphenyl-imino)-3H-[1,2,4]-thiadia-zolo [4,3-a]-pyridine] | 57 |
| c1ccn2c(=NC3=NCCS3)snc2c1 [Example 2u, 3-(4,5-dihydrothiazol-2-ylimino)-3H-[1,2,4]-thia-diazolo [4,3-a]pyridine] | 78 |
| Clc1ccc2nsc(=Nc3ccncc3)n2c1 [Example 4] | 61 |
| CN(O)C(=O)Cc1ccc(N=c2snc3ccccn23)cc1 [Example 9, 4-(3H-[1,2,4]-Thiadiazole[4,3-a]-pyridin-3-ylideneamino)-phenylacetic acid N-methylhydroxamide] | 61 |

Same assay, conditions: Cavia porcellus, 20 min; 200 μg/ml substance (footnote +); ovalbumin 0.1 μg/ml; 20 min/37°C. preincubation; read-out: % Inhibition of the constriction of passive-sensitised lung parenchyms strips (guinea pigs) induced by ovalbumin

| SMILES | inhibition at 200 µg/mL [%] |
| --- | --- |
| Cn1c(=O)c2[nH]cnc2n(C)c1=O [aminophylline, reference compound] | 26 |

From patent US5447934A, “Anti-allergic thiadiazolo [4,3-a]pyridine derivatives” (Boehringer Mannheim GmbH, priority 1991, dated 1995)
